For one experiment, the target named is T1, CDK9/CycT1 (Homo sapiens, UniProt P50750).
T1 construct: Recombinant full-length His-tagged human CDK9 and CycT1; His; purchased Invitrogen PV4131; host or cells: insect cells
Description: CDK9/CycT1 high ATP kinase assay (TR-FRET, Method 1b). In kind it is biochemical. The settings on record: for pIC50: Method 1b, 2 mM ATP; for Selectivity high ATP CDK9 over high ATP CDK2: IC50 (high ATP CDK2)/IC50 (high ATP CDK9): Methods 1b and 2b, minimal values where CDK9 IC50 is at the assay limit. On the procedure:
1b. CDK9/CycT1 High ATP Kinase Assay
CDK9/CycT1-inhibitory activity of compounds of the present invention at a high ATP concentration after preincubation of enzyme and test compounds was quantified employing the CDK9/CycT1 TR-FRET assay as described in the following paragraphs.
Recombinant full-length His-tagged human CDK9 and CycT1, expressed in insect cells and purified by Ni-NTA affinity chromatography, were purchase from Invitrogen (Cat. No PV4131). As substrate for the kinase reaction biotinylated peptide biotin-Ttds-YISPLKSPYKISEG (C-terminus in amid form) was used which can be purchased e.g. from the company JERINI peptide technologies (Berlin, Germany). For the assay 50 nl of a 100 fold concentrated solution of the test compound in DMSO was pipetted into a black low volume 384 well microtiter plate (Greiner Bio-One, Frickenhausen, Germany), 2 μl of a solution of CDK9/CycT1 in aqueous assay buffer [50 mM Tris/HCl pH 8.0, 10 mM MgCl2, 1.0 mM dithiothreitol, 0.1 mM sodium ortho-vanadate, 0.01% (v/v) Nonidet-P40 (Sigma)] were added and the mixture was incubated for 15 min at 22° C. to allow pre-binding of the test compounds to the enzyme before the start of the kinase reaction. […] The concentration of CDK9/CycT1 was adjusted depending of the activity of the enzyme lot and was chosen appropriate to have the assay in the linear range, typical concentrations were in the range of 0.5 μg/mL. The reaction was stopped by the addition of 5 μl of a solution of TR-FRET detection reagents (0.2 μM streptavidine-XL665 [Cisbio Bioassays, Codolet, France] and 1 nM anti-RB(pSer807/pSer811)-antibody from BD Pharmingen [#558389] and 1.2 nM LANCE EU-W1024 labeled anti-mouse IgG antibody [Perkin-Elmer, product no. AD0077]) in an aqueous EDTA-solution (100 mM EDTA, 0.2% (w/v) bovine serum albumin in 100 mM HEPES pH 7.5).
The resulting mixture was incubated 1 h at 22° C. to allow the formation of complex between the phosphorylated biotinylated peptide and the detection reagents. Subsequently the amount of phosphorylated substrate was evaluated by measurement of the resonance energy transfer from the Eu-chelate to the streptavidine-XL. Therefore, the fluorescence emissions at 620 nm and 665 nm after excitation at 350 nm was measured in a HTRF reader, e.g. a Rubystar (BMG Labtechnologies, Offenburg, Germany) or a Viewlux (Perkin-Elmer). The ratio of the emissions at 665 nm and at […] was taken as the measure for the amount of phosphorylated substrate. The data were normalised (enzyme reaction without inhibitor=0% inhibition, all other assay components but no enzyme=100% inhibition).

A further experiment deals with HeLa-MaTu-ADR cells. Description: Proliferation assay HeLa-MaTu-ADR. The format is cell-based, human. The settings on record: Homo sapiens, 96 h, 4 days, crystal violet; read-out: Inhibition of HeLa-MaTu-ADR cell proliferation IC50. The method, then:
(§1) Cultivated tumour cells (HeLa, human cervical tumour cells, ATCC CCL-2; NCI-H460, human non-small cell lung carcinoma cells, ATCC HTB-177; A2780, human ovarian carcinoma cells, ECACC #93112519; DU 145, hormone-independent human prostate carcinoma cells, ATCC HTB-81; HeLa-MaTu-ADR, multidrug-resistant human cervical carcinoma cells, EPO-GmbH Berlin; Caco-2, human colorectal carcinoma cells, ATCC HTB-37; B16F10, mouse melanoma cells, ATCC CRL-6475) were plated at a density of 5,000 cells/well (DU145, HeLa-MaTu-ADR), 3,000 cells/well (NCI-H460, HeLa), 2,500 cells/well (A2780), 1,500 cells/well (Caco-2), or 1,000 cells/well (B16F10) in a 96-well multititer plate in 200 μL of their respective growth medium supplemented 10% fetal calf serum. After 24 hours, the cells of one plate (zero-point plate) were stained with crystal violet (see below), while the medium of the other plates was replaced by fresh culture medium (200 μl), to which the test substances were added in various concentrations (0 μM, as well as in the range of 0.001-10 μM). The cells were incubated for 4 days in the presence of test substances. Cell proliferation was determined by staining the cells with crystal violet: the cells were fixed by adding 20 μl/measuring point of an 11% glutaric aldehyde solution for 15 minutes at room temperature. After three washing cycles of the fixed cells with water, the plates were dried at room temperature. The cells were stained by adding 100 μl/measuring point of a 0.1% crystal violet solution (pH 3.0). After three washing cycles of the stained cells with water, the plates were dried at room temperature. The dye was dissolved by adding 100 μl/measuring point of a 10% acetic acid solution. The extinction was determined by photometry at a wavelength of 595 nm. The change of cell number, in percent, was calculated by normalization of the measured values to the extinction values of the zero-point plate (=0%) and the extinction of the untreated (0 μm) cells (=100%). The IC50 values (inhibitory concentration at 50% of maximal effect) were determined by means of a 4 parameter fit. Non-adherent MOLM-13 human acute myeloid leukemia cells (DSMZ ACC 554) were seeded at a density of 5,000 cells/well in a 96-well multititer plate in 100 μL of growth medium supplemented 10% fetal calf serum. After 24 hours, cell viability of one plate (zero-point plate) was determined with the Cell Titre-Glo Luminescent Cell Viability Assay (Promega), while 50 μL of test compound containing medium was added to the wells of the other plates (final concentrations in the range of 0.001-1 μM and DMSO controls). Cell viability was assessed after 72-hour exposure with the Cell Titre-Glo Luminescent Cell Viability Assay (Promega). IC50 values (inhibitory concentration at 50% of maximal effect) were determined by means of a 4 parameter fit on measurement data which were normalized to vehicle (DMSO) treated cells (=100%) and measurement readings taken immediately before compound exposure (=0%).

A further experiment relates to NCI-H460 cells. Description: Proliferation assay NCI-H460. In kind it is cell-based, human. The note with it: Homo sapiens, NCI-H460, 96 h, 4 days, crystal violet; read-out: Inhibition of NCI-H460 cell proliferation IC50. The method, then: as §1
Another experiment relates to Caco-2 cells. Description: Proliferation assay Caco-2. The note with it: Homo sapiens, Caco-2, 96 h, 4 days, crystal violet; read-out: Inhibition of Caco-2 cell proliferation IC50. In kind it is cell-based, human. The method, then: as §1

pIC50: −log10 of the molar value.

T1 sequence (P50750 whole entry): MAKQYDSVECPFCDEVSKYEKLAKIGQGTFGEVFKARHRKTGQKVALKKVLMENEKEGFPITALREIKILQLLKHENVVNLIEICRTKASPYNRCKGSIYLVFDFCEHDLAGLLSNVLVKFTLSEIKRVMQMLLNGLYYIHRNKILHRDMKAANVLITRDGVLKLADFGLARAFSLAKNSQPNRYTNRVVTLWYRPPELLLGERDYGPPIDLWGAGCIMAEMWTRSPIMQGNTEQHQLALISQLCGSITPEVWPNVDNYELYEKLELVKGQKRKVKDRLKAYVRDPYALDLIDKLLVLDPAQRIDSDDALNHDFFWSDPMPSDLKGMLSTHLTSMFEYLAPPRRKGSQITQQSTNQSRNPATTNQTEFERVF
T1 sequence (O60563 whole entry partner): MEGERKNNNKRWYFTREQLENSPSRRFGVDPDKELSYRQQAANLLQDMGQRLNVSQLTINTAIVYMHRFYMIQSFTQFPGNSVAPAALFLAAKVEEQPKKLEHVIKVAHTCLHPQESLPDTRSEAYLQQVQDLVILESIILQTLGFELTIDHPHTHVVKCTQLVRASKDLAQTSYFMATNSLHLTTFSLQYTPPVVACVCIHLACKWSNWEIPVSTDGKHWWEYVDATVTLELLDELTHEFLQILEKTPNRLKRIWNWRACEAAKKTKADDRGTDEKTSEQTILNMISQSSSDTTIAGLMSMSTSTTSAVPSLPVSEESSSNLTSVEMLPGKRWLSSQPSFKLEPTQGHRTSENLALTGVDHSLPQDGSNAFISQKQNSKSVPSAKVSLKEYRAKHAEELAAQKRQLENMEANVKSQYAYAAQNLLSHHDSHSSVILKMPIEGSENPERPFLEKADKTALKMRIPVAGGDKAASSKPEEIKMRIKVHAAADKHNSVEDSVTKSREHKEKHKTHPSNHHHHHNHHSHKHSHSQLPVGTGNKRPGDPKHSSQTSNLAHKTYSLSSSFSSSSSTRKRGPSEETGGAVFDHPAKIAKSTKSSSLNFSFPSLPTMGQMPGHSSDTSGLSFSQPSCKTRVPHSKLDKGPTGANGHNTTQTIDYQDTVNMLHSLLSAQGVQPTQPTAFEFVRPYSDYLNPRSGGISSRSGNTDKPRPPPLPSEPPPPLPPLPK

On to `CCNC(=O)N=S(C)(=O)Cc1cc2nc(c1)OCCCOc1cc(F)ccc1-c1cc(ncc1F)N2` (racemic) [Example 17, (rac)-1-[{[15,19-difluoro-3,4-dihydro-2H,11H-10,6-(azeno)-12,16-(metheno)-1,5,11,13-benzodioxadiazacyclooctadecin-8-yl]methyl}(methyl)oxido-λ^6-sulfanylidene]-3-ethylurea], for which the pIC50 against CDK9/CycT1 was 8.57; in the experiment on HeLa-MaTu-ADR cells, 7.60; in the experiment on NCI-H460 cells, 7.51; in the experiment with Caco-2 cells, 7.68. In addition, the “Selectivity high ATP CDK9 over high ATP CDK2: IC50 (high ATP CDK2)/IC50 (high ATP CDK9)” value (“Selectivity high ATP CDK9” below) on CDK9/CycT1 turned out to be 13.5.

Consider `CC(=O)N=S(C)(=O)Cc1cc2nc(c1)OCCCOc1cc(F)ccc1-c1cc(ncc1F)N2` (racemic) [Example 18, (rac)-N-[{[15,19-difluoro-3,4-dihydro-2H,11H-10,6-(azeno)-12,16-(metheno)-1,5,11,13-benzodioxadiazacyclooctadecin-8-yl]methyl}(methyl)oxido-λ^6-sulfanylidene]acetamide], for which the pIC50 against CDK9/CycT1 is 8.54; in the experiment with HeLa-MaTu-ADR cells it was 8.00; with NCI-H460 cells, 7.57; with Caco-2 cells it was 7.85. The “Selectivity high ATP CDK9” value at CDK9/CycT1 amounted to 21.7.

On to `CN=S(C)(=O)Cc1cc2nc(c1)OCCCOc1cc(F)ccc1-c1cc(ncc1F)N2` (racemic) [Example 19, (rac)-8-[(N,S-dimethylsulfonimidoyl)methyl]-15,19-difluoro-3,4-dihydro-2H,11H-10,6-(azeno)-12,16-(metheno)-1,5,11,13-benzodioxadiazacyclooctadecine], for which the pIC50 was 8.72 at CDK9/CycT1, 7.42 with HeLa-MaTu-ADR cells, 7.31 with NCI-H460 cells and 7.48 in the experiment with Caco-2 cells. The “Selectivity high ATP CDK9” value at CDK9/CycT1 is given as 81.7.

With `CCOC(=O)N=S(C)(=O)Cc1cc2nc(c1)OCCCOc1cc(F)ccc1-c1cc(ncc1F)N2` (racemic) [Example 20, (rac)-ethyl [{[15,19-difluoro-3,4-dihydro-2H,11H-10,6-(azeno)-12,16-(metheno)-1,5,11,13-benzodioxadiazacyclooctadecin-8-yl]methyl}(methyl)oxido-λ^6-sulfanylidene]carbamate], the pIC50 was 8.47 against CDK9/CycT1, 7.52 with HeLa-MaTu-ADR cells, 7.46 in the experiment with NCI-H460 cells and 7.62 in the experiment on Caco-2 cells. Besides, the “Selectivity high ATP CDK9” value on CDK9/CycT1 came to 13.2.

Take `CS(=O)(Cc1cc2nc(c1)OCCCOc1cc(F)ccc1-c1cc(ncc1F)N2)=NC(=O)OCCCl` (racemic) [Example 21, (rac)-2-chloroethyl [{[15,19-difluoro-3,4-dihydro-2H,11H-10,6-(azeno)-12,16-(metheno)-1,5,11,13-benzodioxadiazacyclooctadecin-8-yl]methyl}(methyl)oxido-λ^6-sulfanylidene]carbamate]: the pIC50 on CDK9/CycT1 is 8.23; in the experiment on HeLa-MaTu-ADR cells it was 7.82; in the experiment with NCI-H460 cells, 7.55; in the experiment on Caco-2 cells, 7.80. Besides, the “Selectivity high ATP CDK9” value at CDK9/CycT1 amounted to 12.7.

`CS(=O)(=O)N=S(C)(=O)Cc1cc2nc(c1)OCCCOc1cc(F)ccc1-c1cc(ncc1F)N2` (racemic) [Example 22, (rac)-N-[{[15,19-difluoro-3,4-dihydro-2H,11H-10,6-(azeno)-12,16-(metheno)-1,5,11,13-benzodioxadiazacyclooctadecin-8-yl]methyl}(methyl)oxido-λ^6-sulfanylidene]methanesulfonamide]: the pIC50 at CDK9/CycT1 is 8.57; in the experiment with HeLa-MaTu-ADR cells it was 7.70; in the experiment on NCI-H460 cells, 7.44; in the experiment with Caco-2 cells, 7.57. Further, on CDK9/CycT1, the “Selectivity high ATP CDK9” value is listed as 71.6.

These data come from patent publication US9963464B2, “Macrocyclic compounds” (Bayer Pharma Aktiengesellschaft, priority 2014, dated 2018).
